Test results from ChEMBL document CHEMBL4321837, “Discovery of Potent and Orally Effective Dual Janus Kinase 2/FLT3 Inhibitors for the Treatment of Acute Myelogenous Leukemia and Myeloproliferative Neoplasms” (J Med Chem, 2019).
Calls of active or inactive are those of the source. The rule behind the calls is not given here.

Key:
[1] = tested on: MV4-11; experiment: Induction of apoptosis in human MV4-11 cells assessed as early apoptotic cells at 0.05 uM after 24 hrs by Annexin V FITC/PI staining based flow cytometry analysis (reference value: 2.14%); format: functional
[2] = Intrinsic clearance in rat liver microsomes; format: ADME, Microsome
[3] = target: CDK4/Cyclin D3 (Homo sapiens, UniProt P11802); experiment: Inhibition of recombinant full length human CDK4/CyclinD3 using Rb fragment as substrate incubated for 30 mins in presence of [gamma33P]-ATP by scintillation counting based radiometry assay; format: protein-complex assay
[4] = Intrinsic clearance in monkey liver microsomes; format: ADME, Macaca mulatta, Microsome; conditions: rhesus monkey
[5] = target: Vascular endothelial growth factor receptor 3 (Homo sapiens, UniProt P35916); experiment: Inhibition of recombinant human FLT4 (800 to 1297 residues) using poly(Glu:Tyr) as substrate incubated for 30 mins in presence of [gamma33P]-ATP by scintillation counting based radiometry assay
[6] = AUC (0 to t) in Sprague-Dawley rat at 5 mg/kg, po measured up to 24 hrs by LC/MS/MS analysis; format: ADME, organism-based; design: dose 5 mg/kg, time < 24 hr, route oral; conditions: in vivo, 24 h
[7] = Cytotoxicity against rat H9c2(2-1) cells assessed as cell viability after 72 hrs by MTT assay; format: cell-based
[8] = species on record: Homo sapiens; experiment: Inhibition of JAK2 V617F mutant/FLT3 in human SET2 cells assessed as reduction in STAT5 phosphorylation at 0.2 uM after 2 hrs by Western blot analysis; format: cell-based
[9] = target: Cytochrome P450 2E1 (Homo sapiens, UniProt P05181); experiment: Inhibition of CYP2E1 (unknown origin); format: ADME
[10] = Intrinsic clearance in mouse liver microsomes; format: ADME, Microsome
[11] = tested on: MV4-11; experiment: Induction of cell cycle arrest in human MV4-11 cells assessed as accumulation at G0/G1 phase at 0.01 uM after 24 hrs by propidium iodide staining based flow cytometry analysis (reference value: 54.49%); format: functional
[12] = tested on: MV4-11; experiment: Inhibition of JAK2/FLT3 ITD mutant in human MV4-11 cells assessed as reduction in STAT5 phosphorylation at 0.2 uM after 2 hrs by Western blot analysis; format: cell-based
[13] = tested on: SET-2; experiment: Antitumor activity against human SET2 cells overexpressing JAK2 V617F mutant xenografted in NOD/SCID mouse assessed as tumor growth inhibition at 30 mg/kg, po qd for 18 days measured every 2 days for 18 days by caliper method relative to control; format: functional; conditions: SET-2, po, read-out: TGI
[14] = Tmax in Sprague-Dawley rat at 5 mg/kg, po measured up to 24 hrs by LC/MS/MS analysis; format: ADME, organism-based; conditions: in vivo, 24 h
[15] = tested on: MV4-11; experiment: Induction of apoptosis in human MV4-11 cells assessed as early apoptotic cells at 1.6 uM after 24 hrs by Annexin V FITC/PI staining based flow cytometry analysis (reference value: 2.14%); format: functional
[16] = tested on: MV4-11; experiment: Induction of apoptosis in human MV4-11 cells assessed as viable cells at 0.4 uM after 24 hrs by Annexin V FITC/PI staining based flow cytometry analysis (reference value: 96.3%); format: functional; conditions: MV4-11, 24 h, read-out: Activity
[17] = tested on: MV4-11; experiment: Induction of apoptosis in human MV4-11 cells assessed as viable cells at 0.2 uM after 24 hrs by Annexin V FITC/PI staining based flow cytometry analysis (reference value: 96.3%); format: functional; conditions: MV4-11, 24 h, read-out: Activity
[18] = tested on: NCI-H460; experiment: Antiproliferative activity against human NCI-H460 cells assessed as reduction in cell growth after 72 hrs by MTT assay; format: functional, cell-based
[19] = tested on: HCT-116; experiment: Antiproliferative activity against human HCT116 cells assessed as reduction in cell growth after 72 hrs by MTT assay; format: functional, cell-based
[20] = tested on: MV4-11; experiment: Induction of apoptosis in human MV4-11 cells assessed as viable cells at 0.05 uM after 24 hrs by Annexin V FITC/PI staining based flow cytometry analysis (reference value: 96.3%); format: functional; conditions: MV4-11, 24 h, read-out: Activity
[21] = target: T1, Tyrosine-protein kinase JAK3 (Homo sapiens, UniProt P52333); experiment: Inhibition of human JAK3 (781 to end residues) using GGEEEEYFELVKK as substrate after 40 mins in presence of [gamma33P]-ATP by scintillation counting based radiometric assay
T1 sequence (P52333 whole entry): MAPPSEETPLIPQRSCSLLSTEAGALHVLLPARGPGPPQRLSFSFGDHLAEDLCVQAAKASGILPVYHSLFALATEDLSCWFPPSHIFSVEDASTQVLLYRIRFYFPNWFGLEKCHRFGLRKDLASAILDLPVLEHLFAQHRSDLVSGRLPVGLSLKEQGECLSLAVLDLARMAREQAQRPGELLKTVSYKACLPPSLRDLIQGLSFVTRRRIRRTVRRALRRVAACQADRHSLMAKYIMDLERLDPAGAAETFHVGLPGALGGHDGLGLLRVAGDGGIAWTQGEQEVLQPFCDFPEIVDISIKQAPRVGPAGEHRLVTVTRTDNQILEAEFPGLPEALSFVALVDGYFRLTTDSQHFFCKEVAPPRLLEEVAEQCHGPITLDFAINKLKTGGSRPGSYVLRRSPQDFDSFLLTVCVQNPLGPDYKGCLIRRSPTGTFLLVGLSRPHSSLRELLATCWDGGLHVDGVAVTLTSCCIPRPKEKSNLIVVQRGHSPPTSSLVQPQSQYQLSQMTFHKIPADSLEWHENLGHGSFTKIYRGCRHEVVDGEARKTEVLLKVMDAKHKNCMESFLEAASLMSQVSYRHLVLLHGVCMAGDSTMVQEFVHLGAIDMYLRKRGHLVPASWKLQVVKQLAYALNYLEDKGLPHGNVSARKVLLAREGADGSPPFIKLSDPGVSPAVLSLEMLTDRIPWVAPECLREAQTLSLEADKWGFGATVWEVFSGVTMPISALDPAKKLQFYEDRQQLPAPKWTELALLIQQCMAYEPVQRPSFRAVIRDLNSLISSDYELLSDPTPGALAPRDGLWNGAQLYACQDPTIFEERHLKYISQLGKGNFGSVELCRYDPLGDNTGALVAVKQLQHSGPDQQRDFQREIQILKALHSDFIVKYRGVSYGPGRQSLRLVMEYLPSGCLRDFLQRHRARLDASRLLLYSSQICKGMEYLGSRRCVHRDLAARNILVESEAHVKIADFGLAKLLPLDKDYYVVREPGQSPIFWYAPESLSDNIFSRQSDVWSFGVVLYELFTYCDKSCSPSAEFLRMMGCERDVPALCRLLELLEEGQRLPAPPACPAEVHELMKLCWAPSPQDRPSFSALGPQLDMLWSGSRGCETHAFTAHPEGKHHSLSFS

[22] = tested on: L02; experiment: Cytotoxicity against human LO2 cells assessed as cell viability after 72 hrs by MTT assay; format: cell-based; conditions: l02, 72 h
[23] = target: Cytochrome P450 2C19 (Homo sapiens, UniProt P33261); experiment: Inhibition of CYP2C19 (unknown origin); format: ADME
[24] = target: Cytochrome P450 2D6 (Homo sapiens, UniProt P10635); experiment: Inhibition of CYP2D6 (unknown origin); format: ADME
[25] = tested on: MOLM-13; experiment: Antiproliferative activity against FLT3-ITD-positive human MOLM13 cells assessed as reduction in cell growth after 72 hrs by MTT assay; format: functional, cell-based; conditions: MOLM-13, 72 h

Sequence of Vascular endothelial growth factor receptor 3 (P35916 whole entry, the tested form may be a part): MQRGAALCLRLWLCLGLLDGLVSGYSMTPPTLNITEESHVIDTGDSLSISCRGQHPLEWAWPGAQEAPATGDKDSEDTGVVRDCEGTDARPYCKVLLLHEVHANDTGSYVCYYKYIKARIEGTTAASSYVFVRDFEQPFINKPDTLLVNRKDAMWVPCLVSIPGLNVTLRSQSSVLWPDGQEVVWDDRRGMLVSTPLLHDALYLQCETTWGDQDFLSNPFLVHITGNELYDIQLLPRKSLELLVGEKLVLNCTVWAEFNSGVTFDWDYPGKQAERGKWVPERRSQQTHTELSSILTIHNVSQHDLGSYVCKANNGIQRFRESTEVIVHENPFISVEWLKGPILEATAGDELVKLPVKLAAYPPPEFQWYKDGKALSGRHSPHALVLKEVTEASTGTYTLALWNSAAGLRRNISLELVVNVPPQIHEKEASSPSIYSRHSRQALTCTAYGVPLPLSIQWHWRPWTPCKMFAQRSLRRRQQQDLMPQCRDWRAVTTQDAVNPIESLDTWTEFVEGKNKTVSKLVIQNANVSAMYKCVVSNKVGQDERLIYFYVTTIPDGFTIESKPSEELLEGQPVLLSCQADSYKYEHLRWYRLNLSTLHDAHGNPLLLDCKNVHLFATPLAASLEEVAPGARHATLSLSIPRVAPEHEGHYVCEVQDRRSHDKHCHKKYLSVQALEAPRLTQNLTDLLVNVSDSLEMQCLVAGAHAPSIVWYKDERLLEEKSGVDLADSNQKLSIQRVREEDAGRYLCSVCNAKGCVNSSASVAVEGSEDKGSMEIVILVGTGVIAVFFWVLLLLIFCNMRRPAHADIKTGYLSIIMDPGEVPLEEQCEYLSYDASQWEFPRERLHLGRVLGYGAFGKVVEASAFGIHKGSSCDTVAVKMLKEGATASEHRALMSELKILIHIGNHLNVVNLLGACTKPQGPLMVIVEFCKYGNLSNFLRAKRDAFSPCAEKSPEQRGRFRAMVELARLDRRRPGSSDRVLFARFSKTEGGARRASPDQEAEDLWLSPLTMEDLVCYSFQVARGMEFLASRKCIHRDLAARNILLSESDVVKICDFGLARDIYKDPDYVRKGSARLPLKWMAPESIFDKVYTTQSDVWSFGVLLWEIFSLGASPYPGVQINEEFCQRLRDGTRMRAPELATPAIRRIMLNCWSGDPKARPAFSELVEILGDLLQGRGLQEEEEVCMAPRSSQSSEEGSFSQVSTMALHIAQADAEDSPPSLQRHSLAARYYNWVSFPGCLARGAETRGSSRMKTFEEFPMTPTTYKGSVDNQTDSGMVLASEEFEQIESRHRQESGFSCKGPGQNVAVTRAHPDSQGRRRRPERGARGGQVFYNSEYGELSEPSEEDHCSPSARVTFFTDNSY
Sequence of Cytochrome P450 2E1 (P05181 whole entry): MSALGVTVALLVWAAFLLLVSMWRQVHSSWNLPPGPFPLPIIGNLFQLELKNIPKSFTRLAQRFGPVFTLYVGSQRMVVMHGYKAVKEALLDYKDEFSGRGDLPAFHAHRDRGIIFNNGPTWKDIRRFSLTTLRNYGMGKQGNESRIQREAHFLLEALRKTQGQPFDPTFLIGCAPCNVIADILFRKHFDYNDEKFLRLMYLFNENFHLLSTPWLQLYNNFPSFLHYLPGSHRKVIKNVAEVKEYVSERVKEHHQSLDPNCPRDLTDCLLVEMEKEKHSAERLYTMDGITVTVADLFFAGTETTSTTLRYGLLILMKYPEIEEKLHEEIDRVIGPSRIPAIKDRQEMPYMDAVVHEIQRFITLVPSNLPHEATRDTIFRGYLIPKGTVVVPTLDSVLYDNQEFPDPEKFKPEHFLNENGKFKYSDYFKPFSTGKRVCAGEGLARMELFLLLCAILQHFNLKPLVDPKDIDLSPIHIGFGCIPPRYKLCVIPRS
Sequence of CDK4/Cyclin D3 (P11802 whole entry, the tested form may be a part): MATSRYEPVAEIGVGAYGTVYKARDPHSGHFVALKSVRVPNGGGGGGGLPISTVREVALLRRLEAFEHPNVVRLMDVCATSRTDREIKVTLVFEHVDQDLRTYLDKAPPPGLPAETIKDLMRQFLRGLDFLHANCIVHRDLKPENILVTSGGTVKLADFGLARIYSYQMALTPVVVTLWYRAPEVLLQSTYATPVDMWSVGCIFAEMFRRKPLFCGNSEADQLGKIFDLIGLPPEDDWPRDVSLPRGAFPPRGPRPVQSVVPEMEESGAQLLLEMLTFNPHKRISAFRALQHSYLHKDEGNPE
Sequence of CDK4/Cyclin D3 (P30281 whole entry, further chain, the tested form may be a part): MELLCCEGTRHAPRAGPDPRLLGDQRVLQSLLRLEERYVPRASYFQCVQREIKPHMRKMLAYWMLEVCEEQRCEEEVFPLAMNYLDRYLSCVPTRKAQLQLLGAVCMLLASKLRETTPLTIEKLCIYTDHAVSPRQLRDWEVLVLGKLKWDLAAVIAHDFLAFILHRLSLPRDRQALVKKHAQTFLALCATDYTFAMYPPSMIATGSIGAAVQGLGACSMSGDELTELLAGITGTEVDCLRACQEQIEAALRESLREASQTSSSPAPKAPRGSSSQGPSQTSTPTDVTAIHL
Sequence of Cytochrome P450 2C19 (P33261 whole entry): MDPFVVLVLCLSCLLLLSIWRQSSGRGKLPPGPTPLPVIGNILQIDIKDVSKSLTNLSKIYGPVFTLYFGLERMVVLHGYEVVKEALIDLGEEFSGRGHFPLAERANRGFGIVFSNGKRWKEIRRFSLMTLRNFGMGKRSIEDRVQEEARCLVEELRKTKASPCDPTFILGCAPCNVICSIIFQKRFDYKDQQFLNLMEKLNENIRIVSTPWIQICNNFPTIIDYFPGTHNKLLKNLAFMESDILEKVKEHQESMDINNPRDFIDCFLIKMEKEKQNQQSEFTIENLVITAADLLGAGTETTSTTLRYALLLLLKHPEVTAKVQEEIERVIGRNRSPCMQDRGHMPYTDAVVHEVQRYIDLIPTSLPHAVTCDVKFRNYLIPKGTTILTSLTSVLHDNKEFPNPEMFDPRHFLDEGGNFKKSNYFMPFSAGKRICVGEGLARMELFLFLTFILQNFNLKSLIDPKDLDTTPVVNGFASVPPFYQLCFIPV
Sequence of Cytochrome P450 2D6 (P10635 whole entry): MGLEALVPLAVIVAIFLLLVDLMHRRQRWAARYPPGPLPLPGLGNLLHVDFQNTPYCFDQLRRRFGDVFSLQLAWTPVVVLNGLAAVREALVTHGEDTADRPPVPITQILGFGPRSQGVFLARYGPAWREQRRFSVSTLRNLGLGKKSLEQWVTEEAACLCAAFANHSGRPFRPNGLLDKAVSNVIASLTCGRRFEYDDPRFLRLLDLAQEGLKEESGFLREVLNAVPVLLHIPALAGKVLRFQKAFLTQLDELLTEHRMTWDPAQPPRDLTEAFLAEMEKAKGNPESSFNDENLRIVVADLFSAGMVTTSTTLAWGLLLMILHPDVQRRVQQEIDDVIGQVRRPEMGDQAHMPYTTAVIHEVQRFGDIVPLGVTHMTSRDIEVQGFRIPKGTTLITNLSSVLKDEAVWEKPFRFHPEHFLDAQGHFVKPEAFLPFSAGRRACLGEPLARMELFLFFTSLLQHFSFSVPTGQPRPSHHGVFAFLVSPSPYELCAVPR

## Cc1cnc(Nc2ccc(N3CCC(N(C)CCO)CC3)c(F)c2)nc1-c1cnn(C(C)C)c1
[1]
  Activity: 5.53%
[2]
  CLH: 0.9 µL/min/mg
[3]
  IC50: 18 nM
[4]
  CLH: 0.5 µL/min/mg
[5]
  IC50: 8 nM
[6]
  AUCt: 2552 ng·h/mL
[7]
  Activity: Non-Toxic
[8]
  inhibition: Active
[9]
  IC50: > 100000 nM
[10]
  CLH: 1.8 µL/min/mg
[11]
  Activity: 58.55%
[12]
  inhibition: Active
[13]
  inhibition in vivo at 30 mg/kg: 66%
[14]
  Tmax: 1.5 h
[15]
  Activity: 33.6%
[16]
  viability at 0.4 µM: 51.2%
[17]
  viability at 0.2 µM: 77.4%
[18]
  Activity: Active
[19]
  Activity: Active
[20]
  viability at 0.05 µM: 89.6%
[21]
  IC50: 39 nM
[22]
  Activity: Non-Toxic
[23]
  IC50: 74700 nM
[24]
  IC50: > 100000 nM
[25]
  IC50: 72 nM
